Assay [1] has as its system T-Rex 293 cell line SC cells having increased expression of progesterone receptor isoform B protein. As to the kind of experiment: Cellular growth inhibition, T-Rex 293 SC cells with increased progesterone receptor isoform B expression (doxycycline), CellTiter-Glo. The format is cell-based. Conditions: progesterone receptor isoform B induced with 10 ng/mL doxycycline, 72 hours. The protocol: (§1) The following types of cells were prepared for this experiment: (i) a T-Rex 293 cell line having increased expression of progesterone receptor isoform B protein due to exposure to doxycycline and (ii) a T-Rex 293 cell line lacking increased expression of progesterone receptor isoform B protein. Ability of the test compounds to inhibit proliferation of the foregoing cell types was evaluated according to the procedures set forth below.
(§2) The doxycycline-inducible progesterone receptor isoform B protein expressing cell line was established using the following protocol: T-Rex 293 cells were purchased from Invitrogen (Cat #R71007) and transfected using Lipofectamine 2000 with the wild-type progesterone receptor B protein sequence cloned into the pcDNA4/TO vector. Transfected cells were selected using 400 μg/mL Zeocin (Invitrogen Cat #R25001). Following selection, single clones were raised and maintained in Dulbecco's Modified Eagle Medium (DMEM) supplemented with 10% w/w Tetracycline-free fetal bovine serum (FBS) and 250 μg/mL Zeocin. Clones were analyzed for expression of progesterone receptor isoform B protein in the presence and absence of 10 ng/ml doxycycline (Sigma Cat #D9891), and a single doxycycline-inducible clone (hereinafter “SC”) was selected for use in downstream assays.
(§3) The SC cells were seeded on poly-D-lysine coated, black clear-bottom 384-well plates at 2500/well, in 25 μL Phenol Red Free Dulbecco's Modified Eagle Medium (DMEM) supplemented with 10% w/w charcoal-dextran treated fetal bovine serum (FBS) and 1% w/w pen-strep, with or without 10 ng/mL doxycycline. Pen-Strep is a commercially available mixture of penicillin G and streptomycin, which is used in mammalian cell culture media to prevent bacterial contamination. Phenol Red Free Dulbecco's Modified Eagle Medium (DMEM) supplemented with 10% w/w charcoal-dextran treated fetal bovine serum (FBS) and 1% w/w pen-strep, with or without 10 ng/mL doxycycline is herein referred to as Treatment Medium. Following seeding of cells in the plates, the plates were spun at 300×g for 30 seconds, then equilibrated to room temperature for 30 minutes, and then deposited in a humidified tissue culture incubator maintained at 37° C. with 5% CO2.
(§4) At 24 hours after seeding of the cells, dilutions of test compound were prepared in DMSO and dissolved in Treatment Medium, to achieve a final DMSO concentration of 0.5% w/w, thereby providing the Test Compound Solution. A 25 μL aliquot of the Test Compound Solution was added to cells in the well plates. An equal volume of a solution containing DMSO and Treatment Medium was used as a negative control. Following treatment of cells with Test Compound Solution or said equal volume of a solution containing DMSO and Treatment Medium, the plates were spun at 300×g for 30 seconds, and then left in an incubator for 72 hours.
(§5) At the end of the treatment duration, cell viability was quantified with CellTiter-Glo 2.0 reagent (Promega Cat #G9243). For this purpose, plates were equilibrated to room temperature for 30 minutes, and then 25 μL of CellTiter-Glo 2.0 reagent was added to cells in the plate wells. Plates were then agitated on a shaker for two minutes at 500 rpm and subsequently incubated at room temperature for 10 minutes. Following incubation, the plates were spun at 3000×g for 30 seconds, then sealed with an optical adhesive cover, and luminescence readings were measured with an EnVision Plate Reader (Perkin Elmer).
(§6) Data was normalized using zero luminescence for baseline. A four-parameter non-linear regression curve fit was applied to dose-response data in GraphPad Prism data analysis software to determine the half-maximal growth inhibitory concentration (GI50) for each test compound.
In general terms: In ATP-based viability assays light output follows the ATP content of the culture.

In a further assay the target is progesterone receptor (Homo sapiens, UniProt P06401). As to the kind of experiment: PR Human Progesterone NHR Binding (Agonist Radioligand) Assay, [3H]progesterone, T47D cytosol. The following applies: 0.5 nM [3H]progesterone, T47D cytosolic fractions, 1 hour at 4° C., legend words it as Kd. The protocol: Compounds were tested using the PR Human Progesterone NHR Binding (Agonist Radioligand) Assay, Cerep at Eurofins Discovery using a modified version of the protocol from Sarup et al. (Cancer Res 1988; 48:5071-5078). Briefly, cytosolic fractions of T47D cells were incubated with 0.5 nM [^3H]progesterone for 1 hour at 4° C. in the absence or presence of the test compound. Nonspecific binding was determined in the presence of 1 μM promegestone. Reactions were subjected to scintillation counting. Results are expressed as a percent inhibition of the control radioligand specific binding.

A further assay concerns T47D cells. The experiment in a line: Cellular growth inhibition assay for T47D cells, CellTiter-Glo. The format is cell-based, human. The following applies: 72 hours treatment, CellTiter-Glo 2.0. The procedure, abridged:
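Cells are plated at 3000/well and allowed 24 h before treatment. Test compound in medium containing 0.5% DMSO is then added, with DMSO-only wells as negative control, and plates are incubated 72 h at 37 °C. ATP luminescence (CellTiter-Glo 2.0) is then fitted to four parameters to derive GI50.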

For assay [2], the system named is T-Rex 293 cell line SC cells lacking increased expression of progesterone receptor isoform B protein. As to the kind of experiment: Cellular growth inhibition, T-Rex 293 SC cells lacking increased progesterone receptor isoform B expression (no doxycycline), CellTiter-Glo. The format is cell-based. The following applies: T-Rex 293 SC cells not exposed to doxycycline, 72 hours. Here is the method: as §1, §2, §3, §4, §5, §6

Assay [3] has as its target progesterone receptor ligand binding domain (LBD) (Homo sapiens (Human), UniProt P06401). The experiment in a line: FP assay for binding affinity to progesterone receptor (PolarScreen Progesterone Receptor Competitor Assay). The following applies: GST-tagged PR LBD, Fluormone tracer, fluorescence polarization, 2 hours at room temperature. The protocol: Compounds were tested using the PolarScreen™ Progesterone Receptor Competitor Assay Kit (Life Technologies Cat #A15905 or a15906), as per the manufacturer's instructions. Briefly, GST-tagged PR LBD, Fluormone tracer, and compound were mixed and incubated for 2 hours at room temperature in the dark. Following incubation, the plates were spun at 3000×g for 30 seconds, then sealed with an optical adhesive cover, and fluorescence polarization was measured using appropriate excitation and emission filters with an EnVision Plate Reader (Perkin Elmer). Compound concentration vs. mP value were plotted in Prism (GraphPad). A four-parameter non-linear regression curve fit was applied to dose-response data to determine the half-maximal inhibitory concentration (IC50) for each test compound.

We go through 9 compounds from patent US20250388575A1, “HETEROBIFUNCTIONAL COMPOUNDS AND METHODS OF TREATING DISEASE” (Halda Therapeutics OpCo, Inc., priority 2022, published 2025).

Sequence of progesterone receptor ligand binding domain (LBD) (P06401 679-913): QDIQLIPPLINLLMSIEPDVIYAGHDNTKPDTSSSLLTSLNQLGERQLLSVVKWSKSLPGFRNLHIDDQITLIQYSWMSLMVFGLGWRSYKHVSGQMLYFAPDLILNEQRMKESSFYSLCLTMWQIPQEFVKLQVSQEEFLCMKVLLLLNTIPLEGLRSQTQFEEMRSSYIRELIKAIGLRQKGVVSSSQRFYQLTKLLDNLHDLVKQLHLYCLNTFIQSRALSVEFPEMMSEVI
Sequence of progesterone receptor (P06401 whole entry, looked up): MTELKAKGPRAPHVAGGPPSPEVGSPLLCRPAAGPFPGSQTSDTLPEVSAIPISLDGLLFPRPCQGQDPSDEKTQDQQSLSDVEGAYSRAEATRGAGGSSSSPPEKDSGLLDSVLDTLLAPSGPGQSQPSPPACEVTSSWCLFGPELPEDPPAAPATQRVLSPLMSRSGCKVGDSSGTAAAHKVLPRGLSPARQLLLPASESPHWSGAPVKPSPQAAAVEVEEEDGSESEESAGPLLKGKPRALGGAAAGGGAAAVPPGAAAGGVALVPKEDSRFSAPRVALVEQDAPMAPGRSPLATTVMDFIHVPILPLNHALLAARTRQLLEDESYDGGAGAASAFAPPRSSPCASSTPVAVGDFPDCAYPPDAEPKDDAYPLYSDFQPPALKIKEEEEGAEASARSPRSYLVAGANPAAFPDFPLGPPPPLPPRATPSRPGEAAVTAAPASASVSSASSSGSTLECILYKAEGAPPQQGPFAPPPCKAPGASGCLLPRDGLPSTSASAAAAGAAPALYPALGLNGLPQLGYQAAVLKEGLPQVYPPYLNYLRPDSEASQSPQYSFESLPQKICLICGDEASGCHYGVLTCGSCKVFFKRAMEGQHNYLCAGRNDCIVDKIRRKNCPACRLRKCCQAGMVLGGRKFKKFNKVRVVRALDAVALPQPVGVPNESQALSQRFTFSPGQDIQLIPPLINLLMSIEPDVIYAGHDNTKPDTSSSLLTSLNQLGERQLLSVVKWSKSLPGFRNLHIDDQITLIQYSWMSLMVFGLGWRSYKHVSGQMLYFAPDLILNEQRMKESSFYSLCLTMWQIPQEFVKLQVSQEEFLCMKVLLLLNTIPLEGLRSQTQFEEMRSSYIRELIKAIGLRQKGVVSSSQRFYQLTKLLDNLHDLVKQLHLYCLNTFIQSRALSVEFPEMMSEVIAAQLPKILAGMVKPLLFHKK

For `CCS(=O)(=O)Nc1ccc(Oc2cccc(OCCOC3CCN(c4ccc(C(=O)N[C@H]5CC[C@H](Oc6ccc(C#N)c(Cl)c6)CC5)nn4)CC3)c2)c(-c2cn(C)c(=O)c3[nH]ccc23)c1` [I-1, N-[4-(3-chloro-4-cyano-phenoxy)cyclohexyl]-6-[4-[2-[3-[4-(ethylsulfonylamino)-2-(6-methyl-7-oxo-1H-pyrrolo[2,3-c]pyridin-4-yl)phenoxy]phenoxy]ethoxy]-1-piperidyl]pyridazine-3-carboxamide], the GI50 (in assay [1]; in the assay on T47D cells (Homo sapiens); in assay [2]) was less than 500 nM each time. On progesterone receptor, this compound gave a Ki of 500 to 2500 nM. For the same compound, the IC50 in assay [3] lay in the range of 500 to 2500 nM.
Turning to `CCS(=O)(=O)c1ccc(Oc2cccc(CCCOC3CC4(C3)CN(c3ccc(C(=O)N[C@H]5CC[C@H](Oc6ccc(C#N)c(Cl)c6)CC5)nn3)C4)c2F)c(-c2cn(C)c(=O)c3[nH]ccc23)c1` [I-46], the GI50 (in assay [1]; in the assay with T47D cells (Homo sapiens); in assay [2]) was less than 500 nM throughout.
In the case of `CCS(=O)(=O)c1ccc(Oc2cccc(CCC3CCN(c4ccc(C(=O)N[C@H]5CC[C@H](Oc6ccc(C#N)c(Cl)c6)CC5)nn4)CC3)c2F)c(-c2cn(C)c(=O)c3[nH]ccc23)c1` [I-51], the GI50 in the assay on T47D cells (Homo sapiens) is less than 500 nM. The compound also had an IC50 in assay [3] of 50 to 500 nM.
`CCS(=O)(=O)c1ccc(Oc2cccc(CCCC3CCN(c4ccc(C(=O)N[C@H]5CC[C@H](Oc6ccc(C#N)c(Cl)c6)CC5)nn4)CC3)c2F)c(-c2cn(C)c(=O)c3[nH]ccc23)c1` [I-52]: the GI50 in the assay on T47D cells is less than 500 nM. For the same compound, the IC50 in assay [3] lay within 50 to 500 nM.
Regarding `CCS(=O)(=O)c1ccc(Oc2cc(F)c(CCC3CCN(c4ccc(C(=O)N[C@H]5CC[C@H](Oc6ccc(C#N)c(Cl)c6)CC5)nn4)CC3)cc2F)c(-c2cn(C)c(=O)c3[nH]ccc23)c1` [I-59], the values for the GI50 (in assay [1]; in the assay on T47D cells; in assay [2]) were less than 500 nM, less than 500 nM and 500 to 1500 nM, respectively.
Take `Cn1cc(-c2cc(C(C)(C)O)ccc2Oc2ccc(OC3CN(c4ccc(C(=O)N[C@H]5CC[C@H](Oc6ccc(C#N)c(Cl)c6)CC5)nn4)C3)cc2)c2cc[nH]c2c1=O` [I-95, N-[4-(3-chloro-4-cyano-phenoxy)cyclohexyl]-6-[3-[4-[4-(1-hydroxy-1-methyl-ethyl)-2-(6-methyl-7-oxo-1H-pyrrolo[2,3-c]pyridin-4-yl)phenoxy]phenoxy]azetidin-1-yl]pyridazine-3-carboxamide]: the GI50 in assay [1] was less than 500 nM; in the assay with T47D cells (Homo sapiens), 500 to 1500 nM; in assay [2], less than 500 nM.
As for `Cn1cc(-c2cc(C(C)(C)O)ccc2Oc2ccc(CCC3CCN(c4ccc(C(=O)N[C@H]5CC[C@H](Oc6ccc(C#N)c(Cl)c6)CC5)nn4)CC3)cc2)c2cc[nH]c2c1=O` [I-102], the concentration for 50% growth inhibition (GI50) in assay [1] and in assay [2] was less than 500 nM each time.
In turn, `Cn1cc(-c2cc(C(C)(C)O)ccc2Oc2c(F)cc(CCOC3CCN(c4ccc(C(=O)N[C@H]5CC[C@H](Oc6ccc(C#N)c(Cl)c6)CC5)nn4)CC3)cc2F)c2cc[nH]c2c1=O` [I-109] showed a GI50 in the assay with T47D cells (Homo sapiens) of less than 500 nM. The compound further showed an IC50 in assay [3] of 50 to 500 nM.
Turning to `Cn1cc(-c2cc(C(C)(C)O)ccc2O[C@H]2C[C@H](N(C)CC3CCN(c4ccc(C(=O)N[C@H]5CC[C@H](Oc6ccc(C#N)c(Cl)c6)CC5)nn4)CC3)C2)c2cc[nH]c2c1=O` [I-158, N-((1r,4r)-4-(3-chloro-4-cyanophenoxy)cyclohexyl)-6-(4-((((1r,3r)-3-(4-(2-hydroxypropan-2-yl)-2-(6-methyl-7-oxo-6,7-dihydro-1H-pyrrolo[2,3-c]pyridin-4-yl)phenoxy)cyclobutyl)(methyl)amino)methyl)piperidin-1-yl)pyridazine-3-carboxamide], the GI50 in the assay on T47D cells (Homo sapiens) is less than 500 nM. This compound showed an IC50 in assay [3] of 500 to 2500 nM.

The GI50 is the concentration at which growth is held to half of that of the control. A word on the Ki: it is a dissociation constant, usually derived from enzyme kinetics or from competition with a known ligand. A higher Ki goes with lower affinity. As usually defined, the IC50 is the concentration that inhibits the measured activity by half.
